Measurements taken from ChEMBL document CHEMBL1201862, “PubChem BioAssay data set” (2004).
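The compound was tested at five concentrations on cells cultured in 96-well plates, with a 48-hour exposure period. GI50 is the concentration that inhibits growth by half.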 Active and inactive are the calls of the source. Rule as the data show it: active = GI50 up to about 1.1 µM and inactive = higher.

Columns and labels:
Assay in all cases: DTP human tumour cell line panel, 48 h
NCI-H460 = system: NCI-H460
OVCAR-4 = system: OVCAR-4
UACC-62 = system: UACC-62
ACHN = system: ACHN
UO-31 = system: UO-31
SK-MEL-5 = system: SK-MEL-5
HCC 2998 = system: HCC 2998
SNB-75 = system: SNB-75
OVCAR-8 = system: OVCAR-8
SW-620 = system: SW-620
U-251 = system: U-251
TK-10 = system: TK-10
786-0 = system: 786-0
EKVX = system: EKVX
NCI-H522 = system: NCI-H522
HL-60 = system: HL-60

Measured: GI50

O=C(O)CCSC(=S)Nc1cccc(F)c1
inactive: NCI-H460 83.9 µM | OVCAR-4 92.3 µM | UACC-62 13.4 µM | ACHN 23.8 µM | UO-31 > 100 µM | SK-MEL-5 20 µM | HCC 2998 > 100 µM | SNB-75 82 µM | OVCAR-8 37.8 µM | SW-620 > 100 µM | U-251 47.3 µM | TK-10 43.4 µM | 786-0 > 100 µM | EKVX 18.6 µM

COc1ccc(C2NCCc3c2[nH]c2ccccc32)cc1 (stereo not given)
inactive: NCI-H460 88.9 µM | UACC-62 > 100 µM | ACHN > 100 µM | UO-31 42.3 µM | SK-MEL-5 22.5 µM | HCC 2998 24.7 µM | SNB-75 30.5 µM | OVCAR-8 > 100 µM | SW-620 > 100 µM | U-251 > 100 µM | NCI-H522 > 100 µM | TK-10 > 100 µM | HL-60 > 100 µM | 786-0 83.8 µM | EKVX > 100 µM

COc1cc2cc[n+](C)c(Cc3ccccc3)c2cc1OC
inactive: NCI-H460 > 100 µM | OVCAR-4 > 100 µM | UACC-62 > 100 µM | ACHN > 100 µM | UO-31 > 100 µM | SK-MEL-5 > 100 µM | SNB-75 > 100 µM | OVCAR-8 > 100 µM | SW-620 > 100 µM | U-251 > 100 µM | NCI-H522 86.1 µM | TK-10 > 100 µM | 786-0 > 100 µM | EKVX > 100 µM

CC1CCc2c(sc3ncnc(N/N=C/c4ccc(Cl)cc4)c23)C1 (stereo not given)
inactive: NCI-H460 29.4 µM | UACC-62 31.1 µM | ACHN 27.3 µM | UO-31 4.78 µM | SK-MEL-5 17.6 µM | HCC 2998 48.1 µM | SNB-75 78.9 µM | OVCAR-8 31.4 µM | SW-620 35.6 µM | U-251 31.9 µM | NCI-H522 25.9 µM | TK-10 38.2 µM | HL-60 19.2 µM | 786-0 34.7 µM | EKVX 20.1 µM

COc1ccc(C(=O)Nc2ccn(CCOC(=O)c3ccc(OC)cc3)c(=O)n2)cc1
inactive: NCI-H460 > 100 µM | OVCAR-4 > 100 µM | UACC-62 > 100 µM | ACHN > 100 µM | UO-31 76.2 µM | SK-MEL-5 > 100 µM | SNB-75 > 100 µM | OVCAR-8 > 100 µM | SW-620 > 100 µM | U-251 86.7 µM | NCI-H522 46.1 µM | TK-10 > 100 µM | HL-60 > 100 µM | 786-0 > 100 µM | EKVX > 100 µM

CC(=O)NC(CCCN)C(=O)NCc1ccccc1 (stereo not given)
inactive: NCI-H460 > 100 µM | OVCAR-4 > 100 µM | UACC-62 > 100 µM | ACHN > 100 µM | UO-31 > 100 µM | SK-MEL-5 > 100 µM | HCC 2998 > 100 µM | SNB-75 > 100 µM | OVCAR-8 > 100 µM | SW-620 > 100 µM | U-251 > 100 µM | NCI-H522 > 100 µM | TK-10 > 100 µM | 786-0 > 100 µM | EKVX > 100 µM

NC(=O)NC(=O)C1CCC(=O)N1S(=O)(=O)c1ccc(Cl)cc1 (stereo not given)
inactive: NCI-H460 > 100 µM | OVCAR-4 > 100 µM | UACC-62 > 100 µM | ACHN > 100 µM | UO-31 > 100 µM | SK-MEL-5 > 100 µM | SNB-75 > 100 µM | OVCAR-8 > 100 µM | SW-620 > 100 µM | U-251 > 100 µM | NCI-H522 63 µM | TK-10 > 100 µM | HL-60 > 100 µM | 786-0 > 100 µM | EKVX > 100 µM

O=C1N2Cc3c4ccc5c3CN3C(=O)N6Cc7c(ccc(c7CN1C6(c1ccccc1)C23c1ccccc1)OCCOCCOc1cc(Br)c(Br)cc1OCCOCCO4)OCCOCCOc1cc(Br)c(Br)cc1OCCOCCO5 (stereo not given)
inactive: NCI-H460 > 100 µM | OVCAR-4 36.5 µM | UACC-62 > 100 µM | ACHN 47.8 µM | UO-31 > 100 µM | SK-MEL-5 44.3 µM | HCC 2998 > 100 µM | SNB-75 38.2 µM | OVCAR-8 > 100 µM | SW-620 15.1 µM | U-251 > 100 µM | NCI-H522 > 100 µM | TK-10 65.9 µM | 786-0 > 100 µM | EKVX > 100 µM

Cn1c(=O)c(NC(=O)C(Cl)(Cl)Cl)nc2ccccc21
inactive: NCI-H460 > 100 µM | UACC-62 > 100 µM | UO-31 > 100 µM | SK-MEL-5 > 100 µM | HCC 2998 > 100 µM | SNB-75 62.5 µM | OVCAR-8 > 100 µM | SW-620 > 100 µM | U-251 > 100 µM | NCI-H522 > 100 µM | TK-10 > 100 µM | HL-60 > 100 µM | 786-0 > 100 µM | EKVX 54.5 µM

C=CCN1C(=O)CS/C1=N\NC(=O)c1c(C)nc2sccn12
inactive: NCI-H460 > 100 µM | UACC-62 > 100 µM | ACHN > 100 µM | SK-MEL-5 > 100 µM | HCC 2998 > 100 µM | OVCAR-8 > 100 µM | SW-620 > 100 µM | U-251 > 100 µM | NCI-H522 > 100 µM | TK-10 > 100 µM | HL-60 > 100 µM | 786-0 > 100 µM | EKVX > 100 µM
